Data as given in the NIST ThermoML archive (doi:10.1007/s10765-006-0110-x).

Conditions: Liquid, Pulse-echo method

COCCOC [1,2-dimethoxyethane]
speed of sound [m/s]
Conditions	293.15 K	303.15 K	313.15 K	323.15 K	333.15 K	343.15 K	353.15 K
100 kPa	1188.5	1144.8	1101.9	1059.4	1016.5	974.9	932.8
10000 kPa	1242	1201.1	1161.1	1122.4	1083.1	1044.7	1005.8
20000 kPa	1292.4	1252.2	1215.2	1178.7	1142.7	1107	1070
30000 kPa	1336.4	1299.6	1263.9	1229.3	1195.2	1161.4	1127.3
40000 kPa	1378.8	1343.2	1309.2	1275.9	1243.6	1211.6	1178.9
50000 kPa	1418.2	1384.1	1350.7	1319.6	1288.4	1257.6	1226.3
60000 kPa	1455.6	1422.5	1390.5	1361.5	1330.1	1300.5	1270.4
70000 kPa	1490.4	1458	1428.3	1398.6	1369.3	1340.5	1311.3
80000 kPa	1523.9	1492.6	1463.3	1434.7	1406.4	1378.6	1350.2
90000 kPa	1555.7	1525.7	1497	1468.9	1441.3	1414.5	1387
100000 kPa	1586.1	1557.2	1528.8	1501.5	1474.8	1448.7	1421.7

COCCOCCOC [2,5,8-trioxanonane]
speed of sound [m/s]
Conditions	293.15 K	303.15 K	313.15 K	323.15 K	333.15 K	343.15 K	353.15 K
100 kPa	1298.9	1259.3	1219.9	1180.9	1142.4	1104.2	1066.6
10000 kPa	1344.9	1306.7	1269.5	1232.5	1196.4	1160.8	1125.7
20000 kPa	1386.5	1350.6	1315.4	1280.2	1246	1212	1179.3
30000 kPa	1426.6	1392	1357.6	1324.4	1291.4	1259.5	1228.1
40000 kPa	1463.9	1430.4	1397.8	1365.5	1333.7	1303.1	1273.4
50000 kPa	1499.2	1466.9	1435.3	1404	1373.6	1343.9	1314.9
60000 kPa	1532.5	1501.5	1470.5	1440.6	1410.9	1382.1	1354.4
70000 kPa	1565.1	1534.3	1504.4	1475.2	1446.2	1418.6	1391.3
80000 kPa	1595.5	1565.8	1536.7	1508.2	1480.1	1452.9	1426.7
90000 kPa	1624.9	1595.9	1567.6	1539.8	1512.3	1485.9	1460.4
100000 kPa	1653.4	1625.1	1597	1569.9	1543.1	1517.4	1492.3
